Counter-ions that a name gives are not always drawn. Like-named read-outs stand apart in the source and are kept apart here.
What was measured:
[1] = target: T1, α1A Human Adrenergic Receptor (Homo sapiens, UniProt P25100); assay: Radioligand binding, [3H]prazosin, cloned human α1A adrenergic receptor
T1 construct: The entire coding region of α1A (1719 bp); expressed in transfected cells
T1 sequence (P25100 1-572): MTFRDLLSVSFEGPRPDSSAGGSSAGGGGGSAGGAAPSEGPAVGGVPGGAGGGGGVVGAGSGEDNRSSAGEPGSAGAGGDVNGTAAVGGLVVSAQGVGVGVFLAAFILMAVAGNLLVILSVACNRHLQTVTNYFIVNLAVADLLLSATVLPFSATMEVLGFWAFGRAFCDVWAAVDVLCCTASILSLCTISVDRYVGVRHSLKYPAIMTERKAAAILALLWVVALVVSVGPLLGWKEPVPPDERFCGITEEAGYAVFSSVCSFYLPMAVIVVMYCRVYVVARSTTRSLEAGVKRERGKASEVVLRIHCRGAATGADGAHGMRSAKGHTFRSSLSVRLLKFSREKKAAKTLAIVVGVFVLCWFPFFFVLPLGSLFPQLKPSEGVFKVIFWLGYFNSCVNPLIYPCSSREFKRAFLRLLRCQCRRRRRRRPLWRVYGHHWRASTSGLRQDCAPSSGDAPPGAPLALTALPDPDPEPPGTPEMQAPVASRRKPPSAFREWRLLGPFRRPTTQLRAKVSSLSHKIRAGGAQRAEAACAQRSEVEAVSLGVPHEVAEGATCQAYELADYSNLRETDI
Procedure: (§1) The protocols for these experiments are given below.
(§2) These cell lines were prepared by transfecting the cloned cDNA or cloned genomic DNA or constructs containing both genomic DNA and cDNA encoding the human α-adrenergic receptors as follows:
α1A Human Adrenergic Receptor:
The cells were grown, in a controlled environment (37° C., 5% CO2), as monolayers in Dulbecco's modified Eagle's Medium (GIBCO, Grand Island, N.Y.) containing 25 mM glucose and supplemented with 10% bovine calf serum, 100 units/ml penicillin g, and 100 μg/ml streptomycin sulfate.
(§3) Radioligand Binding Assays:
(§4) Transfected cells from culture flasks were scraped into 5 ml of 5 mM Tris-HCl, 5 mM EDTA, pH 7.5, and lysed by sonication. The cell lysates were centrifuged at 1000 rpm for 5 min at 4° C., and the supernatant was centrifuged at 30,000× g for 20 min at 4° C. The pellet was suspended in 50 mM Tris-HCl, 1 mM MgCl2, and 0.1% ascorbic acid at pH 7.5. Binding of the α1 antagonist [^3H]prazosin (0.5 nM, specific activity 76.2 Ci/mmol) to membrane preparations of LM(tk−) cells was done in a final volume of 0.25 ml and incubated at 37° C. for 20 min. Nonspecific binding was determined in the presence of 10 μM phentolamine. The reaction was stopped by filtration through GF/B filters using a cell harvester.

[2] = target: T2, α1B Human Adrenergic Receptor (Homo sapiens, UniProt P35368); assay: Radioligand binding, [3H]prazosin, cloned human α1B adrenergic receptor
T2 construct: The entire coding region of α1B (1563 bp); expressed in transfected cells
T2 sequence (P35368 1-520): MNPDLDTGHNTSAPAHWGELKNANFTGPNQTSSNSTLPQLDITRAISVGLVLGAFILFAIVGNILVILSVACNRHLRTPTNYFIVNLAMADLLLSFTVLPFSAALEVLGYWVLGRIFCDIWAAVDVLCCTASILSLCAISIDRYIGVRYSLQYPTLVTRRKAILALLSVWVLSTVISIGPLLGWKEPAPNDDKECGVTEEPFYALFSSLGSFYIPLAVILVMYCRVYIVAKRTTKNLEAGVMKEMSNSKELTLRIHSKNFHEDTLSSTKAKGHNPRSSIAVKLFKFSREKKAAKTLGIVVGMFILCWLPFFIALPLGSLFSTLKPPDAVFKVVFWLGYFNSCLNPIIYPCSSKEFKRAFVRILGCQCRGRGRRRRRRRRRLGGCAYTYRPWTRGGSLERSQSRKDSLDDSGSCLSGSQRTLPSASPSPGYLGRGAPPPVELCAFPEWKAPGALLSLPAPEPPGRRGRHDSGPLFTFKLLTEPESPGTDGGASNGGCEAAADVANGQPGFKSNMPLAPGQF
Procedure: as §1, §2
α1B Human Adrenergic Receptor:
The construct involved ligating the full-length containing EcoRI brainstem cDNA fragment from λ ZapII into the expression vector. Stable cell lines were selected as described above.
as §3, §4

[3] = target: T3, α1C Human Adrenergic Receptor (Homo sapiens, UniProt P35348); assay: Radioligand binding, [3H]prazosin, cloned human α1C adrenergic receptor
T3 construct: The entire coding region of α1C (1401 bp); expressed in transfected cells
T3 sequence (P35348 1-466): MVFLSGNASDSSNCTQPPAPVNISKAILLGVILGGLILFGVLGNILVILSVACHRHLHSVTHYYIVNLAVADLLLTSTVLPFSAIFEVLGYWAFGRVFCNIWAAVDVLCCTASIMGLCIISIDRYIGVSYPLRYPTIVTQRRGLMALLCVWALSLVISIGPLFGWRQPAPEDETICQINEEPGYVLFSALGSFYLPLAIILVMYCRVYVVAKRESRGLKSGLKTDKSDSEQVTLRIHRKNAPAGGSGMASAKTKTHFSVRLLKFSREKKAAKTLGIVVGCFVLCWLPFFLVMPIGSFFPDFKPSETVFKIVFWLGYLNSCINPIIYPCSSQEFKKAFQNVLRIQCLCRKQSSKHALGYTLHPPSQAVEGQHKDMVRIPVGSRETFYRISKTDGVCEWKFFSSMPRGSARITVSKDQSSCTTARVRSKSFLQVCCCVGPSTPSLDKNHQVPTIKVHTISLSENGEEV
Procedure: as §1, §2
α1C Human Adrenergic Receptor:
The construct involved ligating three partial overlapping fragments: a 5′, 0.6 kb HincII genomic clone, a central 1.8 EcoRI hippocampal cDNA clone, and a 3′ 0.6Kb PstI genomic clone. The hippocampal cDNA fragment overlaps with the 5′ and 3′ genomic clones so that the HincII and PstI sites at the 5′ and 3′ ends of the cDNA clone, respectively, were utilized for ligation. This full-length clone was cloned into the KpnI site of the expression vector, using the 5′ and 3′ KpnI sites of the fragment, derived from vector (i.e., pBluescript) and 3′-untranslated sequences, respectively. Stable cell lines were selected as described above.
as §3, §4

[4] = [3H]prazosin, cloned human α1A receptor, LM(tk−) cell membranes, read-out: pKi alpha-1 1a (converted)
[5] = cloned human α1B receptor, LM(tk−) cell membranes, read-out: pKi alpha-1 1b (converted)
[6] = cloned human α1C receptor, LM(tk−) cell membranes, read-out: pKi alpha-1 1c (converted)
[7] = [3H]prazosin, cloned human receptor, LM(tk-) cell membranes, mean, read-out: PKi alpha-1 1a (converted)
[8] = cloned human receptor, LM(tk-) cell membranes, mean, read-out: PKi alpha-1 1b (converted)
[9] = cloned human receptor, LM(tk-) cell membranes, mean, read-out: PKi alpha-1 1c (converted)

CCOC(=O)C1(c2ccccc2)CCN(CCCNC(=O)C2=C(C)NC(C)=C(C(=O)NC)C2c2ccc([N+](=O)[O-])cc2)CC1 (stereo not shown) [Example 188, 1,4-Dihydro-2,6-dimethyl-3-{N-[3-(4-ethoxycarbonyl-4-phenyl-piperidin-1-yl)propyl]}carboxamide-5-(N-methyl)carboxam ido-4-(4nitrophenyl)pyridine]
melting point: 112 to 113 °C

CCC1=C(C(=O)NCCCN2CCC(c3ccccc3)CC2)C(c2ccc([N+](=O)[O-])cc2)C(C(=O)OC)=C(C)N1 (stereo not shown) (as salt: hydrochloride) (hydrate or solvate) [Example 74, 2-Ethyl-1,4-dihydro-5-methoxycarbonyl-6-methyl-4-(4-nitro)phenyl-3-(N-(3-(4-phenylpiperidin-1-yl)propyl)) carboxamidopyridine hydrochloride hydrate]
melting point: 209 to 214 °C (dec.)

COC(=O)C1=C(C)NC(C)=C(C(=O)NCCCN2CCC(c3ccccc3)CC2)C1c1ccc([N+](=O)[O-])cc1 (racemic) (as salt: hydrochloride) (hydrate or solvate) [(±)-45, (±)-1,4-Dihydro-3-methoxycarbonyl-2,6-dimethyl-4-(4-nitrophenyl)-5-{N-[3-(4-phenylpiperidin-1-yl)propyl]}carboxamidopyridine hydrochloride hemihydrate]
melting point: 160 °C

CC1=C(C(=O)OCC[Si](C)(C)C)C(c2ccc([N+](=O)[O-])cc2)C(C(=O)NCCCN2CCC(c3ccccc3)(c3ccccc3)CC2)=C(COCCN=[N+]=[N-])N1 (stereo not shown) [Example 152, 2-((2-Azidoethyl)oxy)methyl-1,4-dihydro-6-methyl-s-(2-trimethylsilylethoxy)carbonyl-4-(4-nitro)phenyl-3-(N-(3-(4,4-diphenylpiperidin-1-yl)propyl))carboxamidopyridine]
Ki [1, 4]: 490 nM | Ki [2, 5]: 219 nM | Ki [3, 6]: 933 nM

CCC1=C(C(=O)NC)C(c2ccc([N+](=O)[O-])cc2)C(C(=O)NCCCN2CCC(OC)(c3ccccc3)CC2)=C(CC)N1 (stereo not shown) [Example 108]
Ki [1, 4]: 2950 nM | Ki [2, 5]: 4170 nM | Ki [3, 6]: 6.92 nM

CCC1=C(C(=O)NCCCN2CCC(c3ccccc3)(c3ccccc3)CC2)C(c2ccc([N+](=O)[O-])cc2)C(C(=O)OC(C)(C)C)=C(COCCN)N1 (stereo not shown) [Example 140]
Ki [1, 4]: 7240 nM | Ki [2, 5]: 14500 nM | Ki [3, 6]: 7080 nM

CCC1=C(C(=O)O)C(c2ccc([N+](=O)[O-])cc2)C(C(=O)NCCCN2CCC(c3ccccc3)(c3ccccc3)CC2)=C(CC)N1 (stereo not shown) [Example 130, 2,6-Diethyl-1,4-dihydro-4-(4-nitrophenyl)-5-{N-[3-(4,4-diphenylpiperidin-1-yl)propyl]}carboxamidopyridine-3-carboxylic acid]
Ki [1, 4]: 912 nM | Ki [2, 5]: 417 nM | Ki [3, 6]: 10.7 nM

COC(=O)C1=C(C)NC(C)=C(C(=O)NCCCN2CCC(C(=O)OC)(c3ccccc3)CC2)C1c1ccc([N+](=O)[O-])cc1 (stereo not shown) [Example 206, 1,4-Dihydro-2,6-dimethyl-5-methoxycarbonyl-3-{N-[3-(4-methoxycarbonyl-4-phenylpiperidin-1-yl)propyl]}carboxamido-4-(4-nitrophenyl)pyridine]
Ki [1, 7]: 1150 nM

CNC(=O)C1=C(C)NC(C)=C(C(=O)NCCCN2CCC(c3ccccc3)(c3ccccc3)CC2)C1c1ccc([N+](=O)[O-])cc1 (single isomer, unassigned; (-)) [(−)-119, 1,4-dihydro-2,6-dimethyl-5-(N-methyl) carboxamido-4-(4-nitrophenyl)-3-{N-[3-(4,4-diphenylpiperidin-1-yl)propyl]} carboxamidopyridine]
Ki ([1]; pKi alpha-1 1a): 1170 nM | Ki [2, 5]: 676 nM | Ki [3, 6]: 2.57 nM

COC(=O)C1=C(C)NC(C)=C(C(=O)NCCCN2CCc3ccccc3C2)C1c1ccc([N+](=O)[O-])cc1 (stereo not shown) [Example 59, 1,4-Dihydro-5-{N-[3-(1,2,3,4-tetrahydroisoquinolin-2-yl)propyl]}carboxamido-3-methoxycarbonyl-2,6-dimethyl-4-(4-nitrophenyl)pyridine hydrochloride hydrate]
Ki ([1]; [3H]prazosin, cloned human receptor in LM(tk-) cell membranes, SEM and n in lines below, read-out: pKi alpha-1 1a (converted)): 513 nM | Ki ([2]; cloned human receptor in LM(tk-) cell membranes, SEM and n in lines below, read-out: pKi alpha-1 1b (converted)): 389 nM | Ki ([3]; cloned human receptor in LM(tk-) cell membranes, SEM and n in lines below, read-out: pKi alpha-1 1c (converted)): 245 nM

CC(=O)C1=C(C)NC(COCCCN)=C(C(=O)NCCCN2CCC(c3ccccc3)(c3ccccc3)CC2)C1c1ccc([N+](=O)[O-])cc1 (stereo not shown) [Example 236, 5-Acetyl-2-((3-aminopropyl)oxy)methyl-1,4-dihydro-6-methyl-4-(4-nitro)phenyl-3-(N-(3-(4,4-diphenylpiperidin-1-yl)propyl)) carboxamidopyridine]
Ki [1, 7]: 347 nM | Ki [2, 8]: 204 nM | Ki [3, 9]: 2.51 nM

CC1=C(C(N)=O)C(c2ccc([N+](=O)[O-])cc2)C(C(=O)NCCCN2CCC(C#N)(c3ccccc3)CC2)=C(COCCN)N1 (stereo not shown) [Example 215]
Ki [1, 7]: 3390 nM | Ki [2, 8]: 1260 nM | Ki [3, 9]: 3.63 nM

CNC(=O)C1=C(C)NC(C)=C(C(=O)NCCCN2CCC(c3ccccc3)(c3ccccc3)CC2)C1c1ccc([N+](=O)[O-])cc1 (single isomer, unassigned; (+)) [(+)-119, 1,4-dihydro-2,6-dimethyl-5-(N-methyl) carboxamido-4-(4-nitrophenyl)-3-{N-[3-(4,4-diphenylpiperidin-1-yl)propyl]} carboxamidopyridine]
Ki ([1]; pKi alpha-1 1a): 1290 nM | Ki [2, 5]: 832 nM | Ki [3, 6]: 380 nM
